Measured values from ChEMBL document CHEMBL1149765, “Anti-tumor 12-deoxyphorbol esters from Euphorbia cornigera” (Eur J Med Chem, 2008).
≈ marks a conversion by molar mass, not a printed value.

Tests used:
KB [1] = assay: Cytotoxicity against human KB cells by MTT assay; type: functional, cell-based
KB [2] = assay: Cytotoxicity against human KB cells assessed as necrotic cells at 2.5 ug/ml by trypan blue exclusion assay; type: functional
KB [3] = assay: Cytotoxicity against human KB cells assessed as apoptotic cells at 5.0 ug/ml by trypan blue exclusion assay; type: functional
KB [4] = assay: Inhibition of DNA synthesis in human KB cells assessed as ratio of DNA in treated to control cells at 1.0 ug/ml; type: functional
KB [5] = assay: Cytotoxicity against human KB cells assessed as apoptotic cells at 2.5 ug/ml by trypan blue exclusion assay; type: functional
KB [6] = assay: Cytotoxicity against human KB cells assessed as necrotic cells at 1.0 ug/ml by trypan blue exclusion assay; type: functional
KB [7] = assay: Cytotoxicity against human KB cells assessed as viable cells at 2.5 ug/ml by trypan blue exclusion assay; type: functional; settings: read-out: Activity
KB [8] = assay: Inhibition of DNA synthesis in human KB cells assessed as ratio of DNA in treated to control cells at 2.5 ug/ml; type: functional
KB [9] = assay: Cytotoxicity against human KB cells assessed as necrotic cells at 5.0 ug/ml by trypan blue exclusion assay; type: functional
KB [10] = assay: Cytotoxicity against human KB cells assessed as viable cells at 1.0 ug/ml by trypan blue exclusion assay; type: functional; settings: read-out: Activity
KB [11] = assay: Cytotoxicity against human KB cells assessed as viable cells at 5.0 ug/ml by trypan blue exclusion assay; type: functional; settings: read-out: Activity
KB [12] = assay: Inhibition of DNA synthesis in human KB cells assessed as 5-bromo-2'-deoxyuridin incorporation at 5.0 ug/ml; type: functional
KB [13] = assay: Cytotoxicity against human KB cells assessed as apoptotic cells at 1.0 ug/ml by trypan blue exclusion assay; type: functional
KB [14] = assay: Inhibition of DNA synthesis in human KB cells assessed as 5-bromo-2'-deoxyuridin incorporation at 2.5 ug/ml; type: functional
KB [15] = assay: Cytotoxicity against human KB cells assessed as apoptotic cells at 0.3 ug/ml by trypan blue exclusion assay; type: functional
KB [16] = assay: Cytotoxicity against human KB cells assessed as viable cells at 0.3 ug/ml by trypan blue exclusion assay; type: functional; settings: read-out: Activity
KB [17] = assay: Cytotoxicity against human KB cells assessed as necrotic cells at 0.3 ug/ml by trypan blue exclusion assay; type: functional
KB [18] = assay: Inhibition of DNA synthesis in human KB cells assessed as 5-bromo-2'-deoxyuridin incorporation at 0.3 ug/ml; type: functional
KB [19] = assay: Inhibition of DNA synthesis in human KB cells assessed as ratio of DNA in treated to control cells at 0.3 ug/ml; type: functional

`CCCCCCCCCC(=O)OCC1=C[C@H]2[C@@H]3C(C)(C)[C@]3(OC(=O)CCCCCCCCC)C[C@@H](C)[C@]2(O)[C@@H]2C=C(C)C(=O)[C@@]2(O)C1` was tested, and the IC50 (KB [1]) was 0.5 µg/mL (≈ 0.761 µM), the Activity (KB [2]) was 3% and the Activity (KB [3]) was 78.13%. For the same molecule, the Ratio (KB [4]) was 0.57, the Activity (KB [5]) was 60.29% and the Activity (KB [6]) was 2%. It also gave a viability at 2.5 µg/mL (KB [7]) of 36.7%, a Ratio (KB [8]) of 0.71 and an Activity (KB [9]) of 6%. The viability at 1 µg/mL (KB [10]) was 58.8%, the viability at 5 µg/mL (KB [11]) was 15.9% and the inhibition at 5 µg/mL (KB [12]) was 27.9%. For the same molecule, the Activity (KB [13]) was 39.24% and the inhibition at 2.5 µg/mL (KB [14]) was 86%.

With `C/C=C(\C)C(=O)OCC1=C[C@H]2[C@@H]3C(C)(C)[C@]3(OC(=O)CCCCCCCCC)C[C@@H](C)[C@]2(O)[C@@H]2C=C(C)C(=O)[C@@]2(O)C1` the IC50 (KB [1]) was 7.6 µg/mL (≈ 13 µM).

In the case of `CCCCCCCCCC(=O)OCC1=C[C@H]2[C@@H]3C(C)(C)[C@]3(OC(=O)CCCCCCC)C[C@@H](C)[C@]2(O)[C@@H]2C=C(C)C(=O)[C@@]2(O)C1`, the IC50 (KB [1]) is reported as 0.8 µg/mL (≈ 1.27 µM), the Activity (KB [2]) is reported as 1% and the Activity (KB [3]) is reported as 70.89%. For the same molecule, the Ratio (KB [4]) was 0.87, the Activity (KB [5]) was 34% and the Activity (KB [6]) was 0%. It also gave a viability at 2.5 µg/mL (KB [7]) of 65%, a Ratio (KB [8]) of 0.71 and an Activity (KB [9]) of 3%. The viability at 1 µg/mL (KB [10]) was 74.7%, the viability at 5 µg/mL (KB [11]) was 26.1% and the inhibition at 5 µg/mL (KB [12]) was 23%. The Activity (KB [13]) was 25.23% and the inhibition at 2.5 µg/mL (KB [14]) was 85%.

With `COc1ccc(C(=O)OCC2=C[C@H]3[C@@H]4C(C)(C)[C@]4(OC(C)=O)C[C@@H](C)[C@]3(O)[C@@H]3C=C(C)C(=O)[C@@]3(O)C2)cc1` the IC50 (KB [1]) was 8.5 µg/mL (≈ 16.2 µM).

Work on `CCCCCCCCCCCC(=O)O[C@@]12C[C@@H](C)[C@@]3(O)[C@@H](C=C(COC(=O)CCCCCCCCC)C[C@]4(O)C(=O)C(C)=C[C@@H]34)[C@@H]1C2(C)C` yielded an IC50 (KB [1]) of 1 µg/mL (≈ 1.46 µM), an Activity (KB [2]) of 1% and an Activity (KB [3]) of 70.13%. The Ratio (KB [4]) was 0.47, the Activity (KB [5]) was 52.23% and the Activity (KB [6]) was 0%. The viability at 2.5 µg/mL (KB [7]) was 46.7%, the Ratio (KB [8]) was 0.51 and the Activity (KB [9]) was 2%. The viability at 1 µg/mL (KB [10]) was 78.8%, the viability at 5 µg/mL (KB [11]) was 27.9% and the inhibition at 5 µg/mL (KB [12]) was 25.9%. The Activity (KB [13]) was 11.24% and the inhibition at 2.5 µg/mL (KB [14]) was 76%.

For `CCCCCCCCCC(=O)OCC1=C[C@H]2[C@@H]3C(C)(C)[C@]3(OC(=O)CCCCC)C[C@@H](C)[C@]2(O)[C@@H]2C=C(C)C(=O)[C@@]2(O)C1`, the IC50 (KB [1]) was 7.2 µg/mL (≈ 12 µM).

Work on `C/C=C(/C)C(=O)OCC1=C[C@H]2[C@@H]3C(C)(C)[C@]3(OC(=O)CCCCCCCCC)C[C@@H](C)[C@]2(O)[C@@H]2C=C(C)C(=O)[C@@]2(O)C1` yielded an IC50 (KB [1]) of 6.4 µg/mL (≈ 10.9 µM).

With `CCCCCCCCCC(=O)OCC1=C[C@H]2[C@@H]3C(C)(C)[C@]3(OC(=O)CCC)C[C@@H](C)[C@]2(O)[C@@H]2C=C(C)C(=O)[C@@]2(O)C1` the IC50 (KB [1]) was 7.8 µg/mL (≈ 13.6 µM).

`CCCCCCCCCC(=O)OCC1=C[C@H]2[C@@H]3C(C)(C)[C@]3(OC(C)=O)C[C@@H](C)[C@]2(O)[C@@H]2C=C(C)C(=O)[C@@]2(O)C1` gave an IC50 (KB [1]) of 8.5 µg/mL (≈ 15.6 µM).

Work on `CC(=O)O[C@@]12C[C@@H](C)[C@@]3(O)[C@@H](C=C(COC(=O)c4ccccc4)C[C@]4(O)C(=O)C(C)=C[C@@H]34)[C@@H]1C2(C)C` yielded an IC50 (KB [1]) of 8.2 µg/mL (≈ 16.6 µM).

With `COc1cccc2c1C(=O)c1c(O)c3c(c(O)c1C2=O)C[C@@](O)(C(=O)CO)C[C@@H]3O[C@H]1C[C@H](N)[C@H](O)[C@H](C)O1.Cl` [DOXORUBICIN HYDROCHLORIDE] the IC50 (KB [1]) was 10 µg/mL.

With `COc1cccc2c1C(=O)c1c(O)c3c(c(O)c1C2=O)C[C@@](O)(C(=O)CO)C[C@@H]3O[C@H]1C[C@H](N)[C@H](O)[C@H](C)O1` [DOXORUBICIN] the Activity (KB [15]) was 61.33%, the viability at 0.3 µg/mL (KB [16]) was 37.7% and the Activity (KB [17]) was 1%. The inhibition at 0.3 µg/mL (KB [18]) was 37.7% and the Ratio (KB [19]) was 0.57.

`CC(=O)O[C@@]12C[C@@H](C)[C@@]3(O)[C@@H](C=C(CO)C[C@]4(O)C(=O)C(C)=C[C@@H]34)[C@@H]1C2(C)C` [PROSTRATIN] gave an IC50 (KB [1]) of 1000 µg/mL (≈ 2560 µM).
